Legend:
Assay in all cases: Kinase panel activity
Type in all cases: biochemical
Conditions in all cases: 0.1 μM, ATP Km
PKBγ(h) = PKBγ(h) (Homo sapiens, UniProt Q9Y243)
Procedure: (§1) The effect of NTW-3475 on kinase activity was tested for a wide range of kinases and is shown in Table 2: Summary Sheet, Activity % ATP Concentration: Km

MARK1(h) = target: T1, MARK1(h) (Homo sapiens, UniProt Q9P0L2)
T1 construct: purchased Millipore (KinaseProfiler service)
Procedure: as §1

PDGFRα(D842V)(h) = PDGFRα(D842V)(h) (Homo sapiens, UniProt P16234, D842V)
Procedure: as §1

Ab1(h) = Ab1(h) (Homo sapiens, UniProt P00519)
Procedure: as §1

PDGFRβ(h) = PDGFRβ(h) (Homo sapiens, UniProt P09619)
Procedure: as §1

BTK(R28H)(h) = BTK(R28H)(h) (Homo sapiens, UniProt Q06187, R28H)
Procedure: as §1

CaMKIδ(h) = CaMKIδ(h) (Homo sapiens, UniProt Q8IU85)
Procedure: as §1

Fer(h) = target: T2, Fer(h) (Homo sapiens, UniProt P16591)
T2 construct: purchased Millipore (KinaseProfiler service)
Procedure: as §1

LKB1(h) = LKB1(h) (Homo sapiens, UniProt Q15831)
Procedure: as §1

SGK(h) = target: T3, SGK(h) (Homo sapiens, UniProt O00141)
T3 construct: purchased Millipore (KinaseProfiler service)
Procedure: as §1

CDK7/cyclinH/MAT1(h) = CDK7/cyclinH/MAT1(h) (Homo sapiens, UniProt P50613)
Procedure: as §1

PKCδ(h) = PKCδ(h) (Homo sapiens, UniProt Q05655)
Procedure: as §1

Ab1(Q252H)(h) = Ab1(Q252H)(h) (Homo sapiens, UniProt P00519, Q252H)
Procedure: as §1

ARK5(h) = ARK5(h) (Homo sapiens, UniProt O60285)
Procedure: as §1

NEK11(h) = NEK11(h) (Homo sapiens, UniProt Q8NG66)
Procedure: as §1

NEK7(h) = NEK7(h) (Homo sapiens, UniProt Q8TDX7)
Procedure: as §1

CDK5/p35(h) = CDK5/p35(h) (Homo sapiens, UniProt Q00535)
Procedure: as §1

MuSK(h) = MuSK(h) (Homo sapiens, UniProt O15146)
Procedure: as §1

NEK2(h) = NEK2(h) (Homo sapiens, UniProt P51955)
Procedure: as §1

EphA2(h) = target: T4, EphA2(h) (Homo sapiens, UniProt P29317)
T4 construct: purchased Millipore (KinaseProfiler service)
Procedure: as §1

CDK5/p25(h) = CDK5/p25(h) (Homo sapiens, UniProt Q00535)
Procedure: as §1

Pyk2(h) = target: T5, Pyk2(h) (Homo sapiens, UniProt Q14289)
T5 construct: purchased Millipore (KinaseProfiler service)
Procedure: as §1

CDK2/cyclinE(h) = CDK2/cyclinE(h) (Homo sapiens, UniProt P24941)
Procedure: as §1

TGFBR1(h) = target: T6, TGFBR1(h) (Homo sapiens, UniProt P36897)
T6 construct: purchased Millipore (KinaseProfiler service)
Procedure: as §1

eEF-2K(h) = target: T7, eEF-2K(h) (Homo sapiens, UniProt O00418)
T7 construct: purchased Millipore (KinaseProfiler service)
Procedure: as §1

TrkB(h) = target: T8, TrkB(h) (Homo sapiens, UniProt Q16620)
T8 construct: purchased Millipore (KinaseProfiler service)
Procedure: as §1

PKBα(h) = PKBα(h) (Homo sapiens, UniProt P31749)
Procedure: as §1

Rsk4(h) = target: T9, Rsk4(h) (Homo sapiens, UniProt Q9UK32)
T9 construct: purchased Millipore (KinaseProfiler service)
Procedure: as §1

F1t1(h) = F1t1(h) (Homo sapiens, UniProt P17948)
Procedure: as §1

CLK2(h) = CLK2(h) (Homo sapiens, UniProt P49760)
Procedure: as §1

PAK2(h) = PAK2(h) (Homo sapiens, UniProt Q13177)
Procedure: as §1

Aurora-A(h) = target: T10, Aurora-A(h) (Homo sapiens, UniProt O14965)
T10 construct: purchased Millipore (KinaseProfiler service)
Procedure: as §1

CDK9/cyclin T1(h) = CDK9/cyclin T1(h) (Homo sapiens, UniProt P50750)
Procedure: as §1

Lck(h) activated = Lck(h) activated (Homo sapiens, UniProt P06239)
Procedure: as §1

cKit(V560G)(h) = cKit(V560G)(h) (Homo sapiens, UniProt P10721, V560G)
Procedure: as §1

PAR-1Bα(h) = PAR-1Bα(h) (Homo sapiens, UniProt Q7KZI7)
Procedure: as §1

ALK(h) = ALK(h) (Homo sapiens, UniProt Q9UM73)
Procedure: as §1

CaMKIIγ(h) = CaMKIIγ(h) (Homo sapiens, UniProt Q13555)
Procedure: as §1

PKCθ(h) = PKCθ(h) (Homo sapiens, UniProt Q04759)
Procedure: as §1

SGK2(h) = target: T11, SGK2(h) (Homo sapiens, UniProt Q9HBY8)
T11 construct: purchased Millipore (KinaseProfiler service)
Procedure: as §1

BTK(R28H)(h), sequence (Q06187 whole entry R28H): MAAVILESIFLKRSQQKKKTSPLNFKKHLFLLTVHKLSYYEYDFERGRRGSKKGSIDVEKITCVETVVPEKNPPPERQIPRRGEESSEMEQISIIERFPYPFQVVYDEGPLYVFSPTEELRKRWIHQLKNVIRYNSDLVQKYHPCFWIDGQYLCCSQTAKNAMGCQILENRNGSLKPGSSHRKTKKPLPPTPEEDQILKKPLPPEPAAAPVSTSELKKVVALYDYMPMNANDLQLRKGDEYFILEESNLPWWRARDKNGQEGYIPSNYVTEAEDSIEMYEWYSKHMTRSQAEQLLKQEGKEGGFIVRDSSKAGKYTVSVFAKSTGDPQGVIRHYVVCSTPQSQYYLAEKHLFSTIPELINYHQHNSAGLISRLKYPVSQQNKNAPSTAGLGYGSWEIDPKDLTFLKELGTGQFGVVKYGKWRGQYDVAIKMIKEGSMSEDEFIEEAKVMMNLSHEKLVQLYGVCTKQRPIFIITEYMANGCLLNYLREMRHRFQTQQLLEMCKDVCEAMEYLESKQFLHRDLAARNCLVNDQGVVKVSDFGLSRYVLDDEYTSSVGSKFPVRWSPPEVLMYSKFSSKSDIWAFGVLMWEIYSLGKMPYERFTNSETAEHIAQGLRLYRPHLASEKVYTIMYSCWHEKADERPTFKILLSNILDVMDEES
PKBα(h), sequence (P31749 whole entry): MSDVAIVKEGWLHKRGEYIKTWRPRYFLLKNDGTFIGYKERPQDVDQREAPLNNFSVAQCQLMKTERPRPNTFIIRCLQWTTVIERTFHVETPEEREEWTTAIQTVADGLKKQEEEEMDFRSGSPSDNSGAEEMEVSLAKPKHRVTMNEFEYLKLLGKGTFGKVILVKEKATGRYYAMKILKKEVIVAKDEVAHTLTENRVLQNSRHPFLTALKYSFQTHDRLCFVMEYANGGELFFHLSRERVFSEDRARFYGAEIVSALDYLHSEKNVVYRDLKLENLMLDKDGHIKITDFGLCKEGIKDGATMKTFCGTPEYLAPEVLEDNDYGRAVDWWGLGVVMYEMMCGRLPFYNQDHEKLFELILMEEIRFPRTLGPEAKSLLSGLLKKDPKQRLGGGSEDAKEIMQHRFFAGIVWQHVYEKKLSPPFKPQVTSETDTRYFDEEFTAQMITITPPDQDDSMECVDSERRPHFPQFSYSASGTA
LKB1(h), sequence (Q15831 whole entry): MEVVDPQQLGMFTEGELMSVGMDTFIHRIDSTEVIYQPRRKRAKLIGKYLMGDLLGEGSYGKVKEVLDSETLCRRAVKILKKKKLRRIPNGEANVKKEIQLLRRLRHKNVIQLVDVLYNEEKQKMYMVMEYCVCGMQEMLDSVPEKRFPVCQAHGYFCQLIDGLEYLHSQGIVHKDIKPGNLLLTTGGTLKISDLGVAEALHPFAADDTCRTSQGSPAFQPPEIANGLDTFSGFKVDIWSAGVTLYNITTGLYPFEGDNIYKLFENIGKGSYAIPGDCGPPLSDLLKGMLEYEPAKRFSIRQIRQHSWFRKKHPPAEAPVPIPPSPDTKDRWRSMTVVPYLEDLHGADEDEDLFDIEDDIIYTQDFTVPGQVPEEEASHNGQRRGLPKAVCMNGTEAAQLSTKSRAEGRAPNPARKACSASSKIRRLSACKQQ
LKB1(h), sequence (Q7RTN6 whole entry partner): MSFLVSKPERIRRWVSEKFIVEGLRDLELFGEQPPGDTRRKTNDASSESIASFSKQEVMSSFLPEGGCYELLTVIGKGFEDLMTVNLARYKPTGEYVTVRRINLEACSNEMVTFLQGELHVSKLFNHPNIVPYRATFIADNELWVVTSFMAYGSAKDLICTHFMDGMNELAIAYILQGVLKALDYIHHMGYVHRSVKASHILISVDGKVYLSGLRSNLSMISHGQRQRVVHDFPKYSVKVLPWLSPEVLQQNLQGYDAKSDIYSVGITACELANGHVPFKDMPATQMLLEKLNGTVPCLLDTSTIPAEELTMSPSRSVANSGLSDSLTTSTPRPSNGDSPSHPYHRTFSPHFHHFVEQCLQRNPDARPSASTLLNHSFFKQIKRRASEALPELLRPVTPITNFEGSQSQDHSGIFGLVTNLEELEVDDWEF
LKB1(h), sequence (Q9Y376 whole entry partner): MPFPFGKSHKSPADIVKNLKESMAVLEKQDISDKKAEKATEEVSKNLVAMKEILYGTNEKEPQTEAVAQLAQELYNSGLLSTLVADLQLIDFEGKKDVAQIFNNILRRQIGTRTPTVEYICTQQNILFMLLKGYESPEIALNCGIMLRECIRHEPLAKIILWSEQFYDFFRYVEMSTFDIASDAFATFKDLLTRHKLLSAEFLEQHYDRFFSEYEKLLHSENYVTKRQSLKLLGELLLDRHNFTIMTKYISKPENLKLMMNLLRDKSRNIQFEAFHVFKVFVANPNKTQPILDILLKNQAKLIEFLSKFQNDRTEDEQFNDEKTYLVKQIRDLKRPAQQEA
T4 sequence (P29317 24-976): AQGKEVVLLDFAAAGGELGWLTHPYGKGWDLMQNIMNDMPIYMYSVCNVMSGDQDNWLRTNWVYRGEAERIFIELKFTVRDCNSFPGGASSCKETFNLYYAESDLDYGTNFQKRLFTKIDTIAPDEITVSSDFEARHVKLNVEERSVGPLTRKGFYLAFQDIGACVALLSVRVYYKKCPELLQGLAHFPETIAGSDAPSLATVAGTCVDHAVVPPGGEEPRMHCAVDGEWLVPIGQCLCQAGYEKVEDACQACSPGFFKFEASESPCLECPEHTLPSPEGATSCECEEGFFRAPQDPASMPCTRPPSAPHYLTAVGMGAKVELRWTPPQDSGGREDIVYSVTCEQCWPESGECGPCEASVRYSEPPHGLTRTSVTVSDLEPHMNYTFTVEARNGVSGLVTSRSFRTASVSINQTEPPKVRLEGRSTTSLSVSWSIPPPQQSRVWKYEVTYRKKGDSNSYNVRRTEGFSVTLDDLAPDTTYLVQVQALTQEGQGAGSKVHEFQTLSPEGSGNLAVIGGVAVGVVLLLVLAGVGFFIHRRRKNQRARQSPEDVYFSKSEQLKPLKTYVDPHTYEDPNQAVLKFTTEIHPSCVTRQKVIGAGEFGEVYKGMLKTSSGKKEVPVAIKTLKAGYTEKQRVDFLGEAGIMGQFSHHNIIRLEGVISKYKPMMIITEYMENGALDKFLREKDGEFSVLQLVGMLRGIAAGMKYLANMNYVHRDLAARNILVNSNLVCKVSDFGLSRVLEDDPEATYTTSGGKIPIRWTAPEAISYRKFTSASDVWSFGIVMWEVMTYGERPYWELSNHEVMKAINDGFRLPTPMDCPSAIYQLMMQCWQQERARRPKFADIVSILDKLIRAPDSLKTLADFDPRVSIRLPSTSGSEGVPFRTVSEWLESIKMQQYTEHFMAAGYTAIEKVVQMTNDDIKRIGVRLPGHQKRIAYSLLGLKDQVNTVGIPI
PAK2(h), sequence (Q13177 whole entry): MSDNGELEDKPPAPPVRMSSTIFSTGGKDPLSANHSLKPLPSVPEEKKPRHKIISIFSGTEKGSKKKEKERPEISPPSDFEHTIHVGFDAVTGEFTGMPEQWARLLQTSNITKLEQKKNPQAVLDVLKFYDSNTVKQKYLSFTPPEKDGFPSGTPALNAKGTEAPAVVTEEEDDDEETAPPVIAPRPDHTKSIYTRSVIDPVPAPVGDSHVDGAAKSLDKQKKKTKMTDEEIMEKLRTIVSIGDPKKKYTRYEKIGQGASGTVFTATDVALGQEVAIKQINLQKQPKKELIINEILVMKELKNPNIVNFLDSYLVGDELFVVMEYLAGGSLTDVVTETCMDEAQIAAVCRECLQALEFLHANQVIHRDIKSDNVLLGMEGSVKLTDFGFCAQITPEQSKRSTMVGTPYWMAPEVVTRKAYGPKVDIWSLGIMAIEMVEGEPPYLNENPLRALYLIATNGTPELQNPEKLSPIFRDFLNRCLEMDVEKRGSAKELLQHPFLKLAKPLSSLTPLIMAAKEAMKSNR
MuSK(h), sequence (O15146 24-869): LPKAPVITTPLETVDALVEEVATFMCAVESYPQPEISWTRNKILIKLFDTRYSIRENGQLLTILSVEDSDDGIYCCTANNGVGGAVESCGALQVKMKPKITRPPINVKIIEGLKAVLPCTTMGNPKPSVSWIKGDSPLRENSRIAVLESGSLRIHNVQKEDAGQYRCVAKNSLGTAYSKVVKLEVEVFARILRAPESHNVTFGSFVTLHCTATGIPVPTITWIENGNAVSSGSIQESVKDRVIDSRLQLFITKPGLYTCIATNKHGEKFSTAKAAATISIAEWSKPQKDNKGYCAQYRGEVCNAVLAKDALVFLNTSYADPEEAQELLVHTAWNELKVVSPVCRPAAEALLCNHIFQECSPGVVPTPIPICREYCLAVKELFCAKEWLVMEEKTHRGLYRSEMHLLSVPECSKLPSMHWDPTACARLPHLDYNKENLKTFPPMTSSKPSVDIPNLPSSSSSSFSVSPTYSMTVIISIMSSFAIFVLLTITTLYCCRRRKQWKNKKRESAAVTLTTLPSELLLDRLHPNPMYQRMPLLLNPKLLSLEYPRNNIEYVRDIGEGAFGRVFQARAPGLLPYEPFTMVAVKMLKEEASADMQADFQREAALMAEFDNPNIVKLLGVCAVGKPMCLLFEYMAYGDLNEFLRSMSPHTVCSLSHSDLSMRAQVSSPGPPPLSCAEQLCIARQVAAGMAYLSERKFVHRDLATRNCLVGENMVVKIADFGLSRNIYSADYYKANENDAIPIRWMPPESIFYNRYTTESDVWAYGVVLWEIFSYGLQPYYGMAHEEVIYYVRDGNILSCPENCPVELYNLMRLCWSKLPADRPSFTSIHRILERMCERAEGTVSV
NEK7(h), sequence (Q8TDX7 whole entry): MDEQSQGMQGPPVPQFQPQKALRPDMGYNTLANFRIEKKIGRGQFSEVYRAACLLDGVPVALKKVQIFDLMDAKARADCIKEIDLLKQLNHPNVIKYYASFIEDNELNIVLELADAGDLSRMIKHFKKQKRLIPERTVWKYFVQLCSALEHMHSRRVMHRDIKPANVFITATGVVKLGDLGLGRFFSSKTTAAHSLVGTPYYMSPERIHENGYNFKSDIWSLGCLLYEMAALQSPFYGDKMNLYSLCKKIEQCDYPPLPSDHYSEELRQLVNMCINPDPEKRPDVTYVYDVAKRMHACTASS

## Cc1cc2c(F)c(Oc3nc(Nc4cc(C5CC5)[nH]n4)cc(N4CCN(C)CC4)n3)cc(F)c2[nH]1 [NTW-3475]
PKBγ(h)
  Activity %: 106%
MARK1(h)
  Activity %: 28%
PDGFRα(D842V)(h)
  Activity %: 17%
Ab1(h)
  Activity %: −9%
PDGFRβ(h)
  Activity %: 89%
BTK(R28H)(h)
  Activity %: 103%
CaMKIδ(h)
  Activity %: 87%
Fer(h)
  Activity %: 69%
LKB1(h)
  Activity %: 98%
SGK(h)
  Activity %: 107%
CDK7/cyclinH/MAT1(h)
  Activity %: 44%
PKCδ(h)
  Activity %: 90%
Ab1(Q252H)(h)
  Activity %: −2%
ARK5(h)
  Activity %: 2%
NEK11(h)
  Activity %: 102%
NEK7(h)
  Activity %: 98%
CDK5/p35(h)
  Activity %: 77%
MuSK(h)
  Activity %: 48%
NEK2(h)
  Activity %: 101%
EphA2(h)
  Activity %: −1%
CDK5/p25(h)
  Activity %: 60%
Pyk2(h)
  Activity %: 59%
CDK2/cyclinE(h)
  Activity %: 89%
TGFBR1(h)
  Activity %: 44%
eEF-2K(h)
  Activity %: 86%
TrkB(h)
  Activity %: 1%
PKBα(h)
  Activity %: 109%
Rsk4(h)
  Activity %: 66%
F1t1(h)
  Activity %: 11%
CLK2(h)
  Activity %: 90%
PAK2(h)
  Activity %: 65%
Aurora-A(h)
  Activity %: 7%
CDK9/cyclin T1(h)
  Activity %: 52%
Lck(h) activated
  Activity %: −1%
cKit(V560G)(h)
  Activity %: 3%
PAR-1Bα(h)
  Activity %: 15%
ALK(h)
  Activity %: 17%
CaMKIIγ(h)
  Activity %: 87%
PKCθ(h)
  Activity %: 109%
SGK2(h)
  Activity %: 107%

Source: US9458137B2, “Substituted indol-5-ol derivatives and their therapeutical applications” (NantBioScience, Inc., priority 2012, dated 2016)
